Experiments:
[1] = tested on: Plasmodium berghei sporozoites; test: Mouse model of malaria infection: sporozoite challenge after vaccination; type: in vivo
Protocol: FIG. 3 provides a graphical representation showing that LPX-mRNA vaccines containing CI058 induce functional liver TRM responses that protect from Plasmodium berghei infection. The function of TRM induced with LPX vaccines containing CI058 was tested in a mouse model of malaria infection, which is known to require liver TRM cells to provide protection against infection. Analysis was in C57BL/6 mice with LPX-mOVA versus LPX-mOVA-CI058 vaccines, with prior transfer of OT-I cells to enhance T cell precursor frequency, and challenge was with P. berghei sporozoites from a parasite strain modified to express OVA. (A) Groups of mice (n=12-15) were subject to vaccination only. Percentages of TRM, TEM and TCM OT-I cells in each treatment group determined in liver 30 days later, assessed as in FIG. 1. Black bars: TRM cells; white bars: TEM cells; grey bars: TCM cells. […] (D) Groups of mice were subject to vaccination followed by challenge with 200 OVA-expressing P. berghei sporozoites 30 days later, and parasitemia was measured 6, 7,8, 10 and 12 days after infection. […] Groups of mice (n=12-15) were subject to vaccination, and then percentages of TRM cells, TEM cells and TCM cells in each treatment group were evaluated in liver 30 days later by flow cytometry using MHC/peptide tetramers containing a defined CD8 T cell epitope from RLP6, using gating strategy in FIG. 2. […]

NKT cells in the liver = test: NKT cell phenotype in the liver after LPX-mRNA vaccination (CD1d/α-GalCer tetramer binding, PD-1); type: in vivo, C57BL/6 mice; details: correlates with dose
Protocol: Dose response of LPX-mOVA-α-GalCer versus LPX-mOVA-CI058 vaccines. Analysis was in C57BL/6 mice, without transfer of OT-I cells, so endogenous T cell responses were monitored on a normal T cell repertoire. Groups of 5 mice were used, and vaccines were administered intravenously. After 28 days, mice were killed and liver tissue collected for analysis of induced T cell response by flow cytometry. […] At the same timer, NKT cells in the liver were also evaluated using fluorescent CD1d/α-GalCer tetramers. […] (B) Graph showing mean level of expression of the “invariant” NKT cell-associated TCR for each treatment group (±SEM), defined as level of binding of fluorescent CD1d/α-GalCer tetramers and expressed as mean fluorescence index. ****P<0.0001 (C) Graph showing mean level of expression of PD-1 on NKT cells for each treatment group (±SEM). **P<0.01
Lymphocytes were stained with monoclonal antibodies for: CD8a (53-6.7), Ly5.1 (A20), CD44 (IM7), CXCR6 (SA051D1), CX3CR1 (SA011F11), from BioLegend (Australian Biosearch, Karrinyup, WA. Australia), and CD62L (MEL-14) and CD69 (H1.2F3), from eBioscience (Jomar Life Research, Scoresby, VIC, Australia). […] Single-color positive control samples were used to adjust compensation and cells were analyzed by flow cytometry on a LSR Fortessa (BD Biosciences), or LSRII SORP using Flowjo software (Tree Star Inc.).

SMILES: CCCCCCCCCCCCCCCCCCCCCCCCCC(=O)N[C@@H](CO[C@H]1O[C@H](CSCC(=O)Nc2ccc(C3=C4C(C)=CC(C)=[N+]4[B-](F)(F)n4c(C)cc(C)c43)cc2)[C@H](O)[C@H](O)[C@H]1O)[C@H](O)[C@H](O)CCCCCCCCCCCCCC [CI058, (2S,3S,4R)-1-(6-Deoxy-6-((2-((4-(5,5-difluoro-1,3,7,9-tetramethyl-5H-4λ4,5λ4-dipyrrolo[1,2-c:2′,1′-f][1,3,2]diazaborinin-10-yl)phenyl)amino)-2-oxoethyl)thio)-α-D-galactopyranosyloxy)-2-hexacosanoylamino-3,4-octadecandiol]
- protection against sporozoite challenge ([1]; 200 OVA-expressing P. berghei sporozoites 30 days after LPX-mOVA vaccination, OT-I transfer): provide protection against challenge with P. berghei sporozoites
- blood parasitemia ([1]; after challenge with OVA-expressing P. berghei sporozoites): significantly limit blood parasitemia
- expression of NKT cell-associated invariant TCR in liver (NKT cells in the liver; CD1d/α-GalCer tetramers): significantly reduced expression
- expression of PD-1 on liver NKT cells (NKT cells in the liver): significantly increased expression

Reference: US20250049904A1, “IMMUNOSTIMULATORY COMPOSITIONS” (VICTORIA LINK LIMITED, priority 2021, published 2025)
